#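 Following 48 hours of exposure in 96-well plates, responses at five concentrations were used to interpolate endpoints linearly. The concentration for 50% growth inhibition is given as GI50.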 Active and inactive are the calls of the source. Cut-off read from the data, not from the text of the source: active = GI50 up to about 1.1 µM and inactive = higher.
# Columns and labels:
# Assay in all cases: NCI anticancer screen, dose series, 48 h
# [1] = tested on: DMS-273
# [2] = tested on: KM-20L2
# [3] = tested on: DLD-1
# [4] = tested on: SNB-78
# [5] = tested on: M19-MEL
# [6] = tested on: HOP-18
# [7] = tested on: LXFL 529
# [8] = tested on: XF498
# [9] = tested on: RXF 631
SMILES,GI50 [1],GI50 [2],GI50 [3],GI50 [4],GI50 [5],GI50 [6],GI50 [7],GI50 [8],GI50 [9]
Cc1nc(-n2nc(-c3ccccc3)cc2-c2ccccc2)sc1C(=O)/C=C/c1ccc(Cl)cc1,28.5 µM (inactive),24.4 µM (inactive),13.2 µM (inactive),46 µM (inactive),18.4 µM (inactive),14.4 µM (inactive),,,
O=C(c1ccc(Cl)cc1)c1cnc(Nc2ccccc2Cl)s1,20.1 µM (inactive),,28.5 µM (inactive),,34.1 µM (inactive),,16.3 µM (inactive),,
CCOC(=O)C(=O)C1C(=O)Nc2ccccc21 (stereo unspecified),> 100 µM (inactive),,> 100 µM (inactive),,> 100 µM (inactive),,> 100 µM (inactive),> 100 µM (inactive),> 100 µM (inactive)
COc1ccc(CC2NCCc3cc(OC)c(OC)cc32)cc1Br (stereo unspecified),22.4 µM (inactive),25.8 µM (inactive),66.7 µM (inactive),42.4 µM (inactive),20.7 µM (inactive),23.1 µM (inactive),26.9 µM (inactive),11.9 µM (inactive),
Nc1nc(F)nc2c1ncn2C1OC(COP(=O)(O)O)C(O)C1O (stereo unspecified),225 µM (inactive),105 µM (inactive),101 µM (inactive),186 µM (inactive),46.1 µM (inactive),63.2 µM (inactive),,66.8 µM (inactive),
COc1cc2c(c(OC)c1OC)-c1ccc(SC)c(=O)cc1C(CO)C2 (stereo unspecified),0.0614 µM (active),0.157 µM (active),0.169 µM (active),0.0966 µM (active),0.15 µM (active),24.8 µM (inactive),0.136 µM (active),0.149 µM (active),< 0.01 µM (active)
CN(C)[C@H]1CC[C@H]2[C@@H]3CCC4C[C@@H](NC(=O)NC(Cc5ccccc5)c5nccs5)CC[C@]4(C)[C@H]3CC[C@]12C (stereo partly specified),1.94 µM (inactive),1.19 µM (inactive),1.74 µM (inactive),,1.85 µM (inactive),,0.488 µM (active),1.2 µM (inactive),1.92 µM (inactive)
[N-]=[N+]=NC(c1cn(C2CC(O)C(CO)O2)c(=O)[nH]c1=O)C(I)I (stereo unspecified),> 100 µM (inactive),> 100 µM (inactive),> 100 µM (inactive),> 100 µM (inactive),> 100 µM (inactive),2.23 µM (inactive),> 100 µM (inactive),,
O=CC(O)C(O)C(O)COc1cc(CO)cc2c1C(=O)c1ccccc1C2=O (stereo unspecified),> 100 µM (inactive),> 100 µM (inactive),> 100 µM (inactive),> 100 µM (inactive),37.6 µM (inactive),> 100 µM (inactive),> 100 µM (inactive),> 100 µM (inactive),> 100 µM (inactive)
Cc1ccc(NCCN(C)C)c2c(=O)c3cc(O)ccc3sc12,1.05 µM (active),8.87 µM (inactive),6.61 µM (inactive),15.6 µM (inactive),10.4 µM (inactive),3.64 µM (inactive),8.18 µM (inactive),4.12 µM (inactive),
C/C(=N\NC(=O)c1ccccc1O)C1=CNc2ccccc2S1,3.1 µM (inactive),15.7 µM (inactive),4.23 µM (inactive),7.94 µM (inactive),7.53 µM (inactive),6.25 µM (inactive),0.875 µM (active),3.99 µM (inactive),
Cn1ncc(=S)[nH]c1=S,> 100 µM (inactive),> 100 µM (inactive),> 100 µM (inactive),> 100 µM (inactive),> 100 µM (inactive),47.6 µM (inactive),> 100 µM (inactive),> 100 µM (inactive),> 100 µM (inactive)
CCCCCn1cnc2c1S(=O)(=O)N(C)C(NC(=O)c1ccccc1)=N2,> 100 µM (inactive),> 100 µM (inactive),> 100 µM (inactive),> 100 µM (inactive),> 100 µM (inactive),,> 100 µM (inactive),,
CN(C)C(=N)NC(N)=S,> 100 µM (inactive),> 100 µM (inactive),> 100 µM (inactive),> 100 µM (inactive),> 100 µM (inactive),> 100 µM (inactive),> 100 µM (inactive),> 100 µM (inactive),> 100 µM (inactive)
COc1ccc(N2C(=O)c3c(c4[nH]c5ccccc5c4c4ccc(C(C)(C)C)cc34)C2=O)cc1,41.3 µM (inactive),> 100 µM (inactive),> 100 µM (inactive),25.7 µM (inactive),50.9 µM (inactive),58.1 µM (inactive),78.5 µM (inactive),20.7 µM (inactive),40.6 µM (inactive)
CCOc1ccccc1NC(=O)CCc1n[nH]c(=S)o1,> 100 µM (inactive),> 100 µM (inactive),> 100 µM (inactive),> 100 µM (inactive),> 100 µM (inactive),,> 100 µM (inactive),> 100 µM (inactive),
Cc1cccc(-c2nnc(S)[nH]2)c1,> 100 µM (inactive),> 100 µM (inactive),> 100 µM (inactive),> 100 µM (inactive),> 100 µM (inactive),> 100 µM (inactive),> 100 µM (inactive),> 100 µM (inactive),> 100 µM (inactive)
CC(=O)c1cccc(NC(=O)C(=O)NNc2nnc(S)n2N)c1,5.55 µM (inactive),14.1 µM (inactive),7.38 µM (inactive),11.3 µM (inactive),0.805 µM (active),11.8 µM (inactive),10.7 µM (inactive),12.7 µM (inactive),3.01 µM (inactive)
Cc1cccc(C)c1NC(=O)C(=O)Cc1nc2ccccc2s1,> 100 µM (inactive),> 100 µM (inactive),> 100 µM (inactive),> 100 µM (inactive),> 100 µM (inactive),,> 100 µM (inactive),> 100 µM (inactive),
C[C@]12CCC(=O)C=C1CC[C@@H]1C2CC[C@@]2(C)C1CC[C@@H]2OC(=O)C12OC1CCC2=O (stereo partly specified),15.5 µM (inactive),18.7 µM (inactive),,16.8 µM (inactive),16.7 µM (inactive),17.4 µM (inactive),14.8 µM (inactive),13.9 µM (inactive),
O=c1[nH]c2c(nc1NC13CC4CC(CC(C4)C1)C3)c(=O)oc1ccccc12,62.1 µM (inactive),> 100 µM (inactive),23.8 µM (inactive),,> 100 µM (inactive),,> 100 µM (inactive),> 100 µM (inactive),
CCOC(=O)C1Oc2ccc([N+](=O)[O-])cc2C1(C)O (stereo unspecified),> 100 µM (inactive),,> 100 µM (inactive),> 100 µM (inactive),> 100 µM (inactive),,> 100 µM (inactive),> 100 µM (inactive),
CCOC(OC1=C(C#N)CCC1)C(CC)[Se]c1ccccc1 (stereo unspecified),11.2 µM (inactive),26.1 µM (inactive),19.6 µM (inactive),29.3 µM (inactive),13.9 µM (inactive),27.2 µM (inactive),16.5 µM (inactive),24.9 µM (inactive),
C=CCOC1=C2CC[C@H](O)[C@@]2(C)CCC1=O,> 100 µM (inactive),> 100 µM (inactive),> 100 µM (inactive),> 100 µM (inactive),> 100 µM (inactive),> 100 µM (inactive),> 100 µM (inactive),,
O=S1(=O)c2ccccc2N=C(c2ccccc2Cl)CC1c1ccc(F)cc1 (stereo unspecified),22.3 µM (inactive),18.6 µM (inactive),15.2 µM (inactive),19.1 µM (inactive),17.7 µM (inactive),9.62 µM (inactive),17.8 µM (inactive),15.6 µM (inactive),
CC(=O)OCC1OC(n2c(=S)n(-c3ccccc3)c(=O)c3cc(Br)ccc32)C(OC(C)=O)C(OC(C)=O)C1OC(C)=O (stereo unspecified),> 100 µM (inactive),> 100 µM (inactive),> 100 µM (inactive),,> 100 µM (inactive),,> 100 µM (inactive),,> 100 µM (inactive)
Cc1noc(C)c1C1=CCCCc2ccccc21,> 100 µM (inactive),> 100 µM (inactive),> 100 µM (inactive),> 100 µM (inactive),90.2 µM (inactive),> 100 µM (inactive),85.5 µM (inactive),,
CC1=Nn2c(nnc2-c2ccccc2Cl)NC(C)(C)C1,> 100 µM (inactive),> 100 µM (inactive),54.7 µM (inactive),> 100 µM (inactive),> 100 µM (inactive),,63.7 µM (inactive),> 100 µM (inactive),
